Reference: ChEMBL document CHEMBL1154040, “Synthesis and evaluation of novel F-18 labeled fluoroarylvaline derivatives: potential PET imaging agents for tumor detection” (Bioorg Med Chem Lett, 2009)

test system: Brain; test: Biodistribution in S180 tumor-bearing KM mouse brain assessed per gram of tissue at 240 to 370 kBq, iv after 15 mins; format: ADME, organism-based; conditions: in vivo, 0.25 h

Drug uptake [%ID]	Structure (SMILES)
0.6	COC(=O)[C@@H](NC(=O)c1ccc([N+](=O)[O-])cc1[18F])C(C)C

test system: Brain; test: Biodistribution in S180 tumor-bearing KM mouse brain assessed per gram of tissue at 240 to 370 kBq, iv after 5 mins; format: ADME, organism-based; conditions: in vivo

Drug uptake [%ID]	Structure (SMILES)
0.99	COC(=O)[C@@H](NC(=O)c1ccc([N+](=O)[O-])cc1[18F])C(C)C

test system: Spleen; test: Biodistribution in S180 tumor-bearing KM mouse spleen assessed per gram of tissue at 240 to 370 kBq, iv after 60 mins; format: ADME, organism-based; conditions: in vivo, 1 h

Drug uptake [%ID]	Structure (SMILES)
0.31	COC(=O)[C@@H](NC(=O)c1ccc([N+](=O)[O-])cc1[18F])C(C)C

test system: Spleen; test: Biodistribution in S180 tumor-bearing KM mouse spleen assessed per gram of tissue at 240 to 370 kBq, iv after 30 mins; format: ADME, organism-based; conditions: in vivo, 0.5 h

Drug uptake [%ID]	Structure (SMILES)
0.51	COC(=O)[C@@H](NC(=O)c1ccc([N+](=O)[O-])cc1[18F])C(C)C

test system: Spleen; test: Biodistribution in S180 tumor-bearing KM mouse spleen assessed per gram of tissue at 240 to 370 kBq, iv after 15 mins; format: ADME, organism-based; conditions: in vivo, 0.25 h

Drug uptake [%ID]	Structure (SMILES)
1.13	COC(=O)[C@@H](NC(=O)c1ccc([N+](=O)[O-])cc1[18F])C(C)C

test system: Spleen; test: Biodistribution in S180 tumor-bearing KM mouse spleen assessed per gram of tissue at 240 to 370 kBq, iv after 5 mins; format: ADME, organism-based; conditions: in vivo

Drug uptake [%ID]	Structure (SMILES)
1.48	COC(=O)[C@@H](NC(=O)c1ccc([N+](=O)[O-])cc1[18F])C(C)C

test system: Muscle tissue; test: Biodistribution in S180 tumor-bearing KM mouse muscle assessed per gram of tissue at 240 to 370 kBq, iv after 60 mins; format: ADME, organism-based; conditions: in vivo, 1 h

Drug uptake [%ID]	Structure (SMILES)
0.69	COC(=O)[C@@H](NC(=O)c1ccc([N+](=O)[O-])cc1[18F])C(C)C

test system: Muscle tissue; test: Biodistribution in S180 tumor-bearing KM mouse muscle assessed per gram of tissue at 240 to 370 kBq, iv after 5 mins; format: ADME, organism-based; conditions: in vivo

Drug uptake [%ID]	Structure (SMILES)
1.43	COC(=O)[C@@H](NC(=O)c1ccc([N+](=O)[O-])cc1[18F])C(C)C

test system: Kidney; test: Biodistribution in S180 tumor-bearing KM mouse kidney assessed per gram of tissue at 240 to 370 kBq, iv after 120 mins; format: ADME, organism-based; conditions: in vivo, 2 h

Drug uptake [%ID]	Structure (SMILES)
0.29	COC(=O)[C@@H](NC(=O)c1ccc([N+](=O)[O-])cc1[18F])C(C)C

test system: Kidney; test: Biodistribution in S180 tumor-bearing KM mouse kidney assessed per gram of tissue at 240 to 370 kBq, iv after 60 mins; format: ADME, organism-based; conditions: in vivo, 1 h

Drug uptake [%ID]	Structure (SMILES)
0.35	COC(=O)[C@@H](NC(=O)c1ccc([N+](=O)[O-])cc1[18F])C(C)C

test system: Kidney; test: Biodistribution in S180 tumor-bearing KM mouse kidney assessed per gram of tissue at 240 to 370 kBq, iv after 30 mins; format: ADME, organism-based; conditions: in vivo, 0.5 h

Drug uptake [%ID]	Structure (SMILES)
3.8	COC(=O)[C@@H](NC(=O)c1ccc([N+](=O)[O-])cc1[18F])C(C)C

test system: Kidney; test: Biodistribution in S180 tumor-bearing KM mouse kidney assessed per gram of tissue at 240 to 370 kBq, iv after 15 mins; format: ADME, organism-based; conditions: in vivo, 0.25 h

Drug uptake [%ID]	Structure (SMILES)
11.28	COC(=O)[C@@H](NC(=O)c1ccc([N+](=O)[O-])cc1[18F])C(C)C

test system: Kidney; test: Biodistribution in S180 tumor-bearing KM mouse kidney assessed per gram of tissue at 240 to 370 kBq, iv after 5 mins; format: ADME, organism-based; conditions: in vivo

Drug uptake [%ID]	Structure (SMILES)
17.9	COC(=O)[C@@H](NC(=O)c1ccc([N+](=O)[O-])cc1[18F])C(C)C

test system: Lung; test: Biodistribution in S180 tumor-bearing KM mouse lung assessed per gram of tissue at 240 to 370 kBq, iv after 120 mins; format: ADME, organism-based; conditions: in vivo, 2 h

Drug uptake [%ID]	Structure (SMILES)
0.25	COC(=O)[C@@H](NC(=O)c1ccc([N+](=O)[O-])cc1[18F])C(C)C

test system: Lung; test: Biodistribution in S180 tumor-bearing KM mouse lung assessed per gram of tissue at 240 to 370 kBq, iv after 60 mins; format: ADME, organism-based; conditions: in vivo, 1 h

Drug uptake [%ID]	Structure (SMILES)
0.31	COC(=O)[C@@H](NC(=O)c1ccc([N+](=O)[O-])cc1[18F])C(C)C

test system: Lung; test: Biodistribution in S180 tumor-bearing KM mouse lung assessed per gram of tissue at 240 to 370 kBq, iv after 30 mins; format: ADME, organism-based; conditions: in vivo, 0.5 h

Drug uptake [%ID]	Structure (SMILES)
1.31	COC(=O)[C@@H](NC(=O)c1ccc([N+](=O)[O-])cc1[18F])C(C)C

test system: Lung; test: Biodistribution in S180 tumor-bearing KM mouse lung assessed per gram of tissue at 240 to 370 kBq, iv after 15 mins; format: ADME, organism-based; conditions: in vivo, 0.25 h

Drug uptake [%ID]	Structure (SMILES)
2.57	COC(=O)[C@@H](NC(=O)c1ccc([N+](=O)[O-])cc1[18F])C(C)C

test system: Lung; test: Biodistribution in S180 tumor-bearing KM mouse lung assessed per gram of tissue at 240 to 370 kBq, iv after 5 mins; format: ADME, organism-based; conditions: in vivo

Drug uptake [%ID]	Structure (SMILES)
5.49	COC(=O)[C@@H](NC(=O)c1ccc([N+](=O)[O-])cc1[18F])C(C)C

test system: Liver; test: Biodistribution in S180 tumor-bearing KM mouse liver assessed per gram of tissue at 240 to 370 kBq, iv after 120 mins; format: ADME, organism-based; conditions: in vivo, 2 h

Drug uptake [%ID]	Structure (SMILES)
0.14	COC(=O)[C@@H](NC(=O)c1ccc([N+](=O)[O-])cc1[18F])C(C)C

test system: Liver; test: Biodistribution in S180 tumor-bearing KM mouse liver assessed per gram of tissue at 240 to 370 kBq, iv after 60 mins; format: ADME, organism-based; conditions: in vivo, 1 h

Drug uptake [%ID]	Structure (SMILES)
0.27	COC(=O)[C@@H](NC(=O)c1ccc([N+](=O)[O-])cc1[18F])C(C)C

test system: Liver; test: Biodistribution in S180 tumor-bearing KM mouse liver assessed per gram of tissue at 240 to 370 kBq, iv after 30 mins; format: ADME, organism-based; conditions: in vivo, 0.5 h

Drug uptake [%ID]	Structure (SMILES)
3.66	COC(=O)[C@@H](NC(=O)c1ccc([N+](=O)[O-])cc1[18F])C(C)C
